Measurements: paper doi:10.1101/2024.12.04.625365v1 (biorxiv, 2024)

Legend:
recombinant hAQP4 (AQP4) = recombinant hAQP4 (AQP4) (Homo sapiens, UniProt P55087); test: biochemical
[1] = molecular target: T1, A2AR (human A2A receptor) (Homo sapiens, UniProt P29274); test: displacement of [3H]ZM-241385 from crude Pichia membranes; format: binding
[2] = molecular target: T1, A2AR (human A2A receptor); test: intrinsic tryptophan fluorescence quenching; format: binding

T1 sequence (P29274 whole entry): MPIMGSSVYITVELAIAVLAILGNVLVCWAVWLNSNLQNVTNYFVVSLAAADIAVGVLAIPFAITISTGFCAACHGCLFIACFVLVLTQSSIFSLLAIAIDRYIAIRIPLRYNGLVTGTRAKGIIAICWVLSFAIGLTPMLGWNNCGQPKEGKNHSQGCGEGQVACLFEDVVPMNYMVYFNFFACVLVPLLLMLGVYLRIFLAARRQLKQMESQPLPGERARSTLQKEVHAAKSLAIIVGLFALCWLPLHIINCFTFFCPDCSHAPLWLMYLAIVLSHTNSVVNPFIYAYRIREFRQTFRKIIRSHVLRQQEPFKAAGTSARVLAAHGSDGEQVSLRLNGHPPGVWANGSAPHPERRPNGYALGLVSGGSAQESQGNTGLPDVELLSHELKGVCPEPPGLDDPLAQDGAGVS
Chain of recombinant hAQP4 (AQP4) (P55087 whole entry): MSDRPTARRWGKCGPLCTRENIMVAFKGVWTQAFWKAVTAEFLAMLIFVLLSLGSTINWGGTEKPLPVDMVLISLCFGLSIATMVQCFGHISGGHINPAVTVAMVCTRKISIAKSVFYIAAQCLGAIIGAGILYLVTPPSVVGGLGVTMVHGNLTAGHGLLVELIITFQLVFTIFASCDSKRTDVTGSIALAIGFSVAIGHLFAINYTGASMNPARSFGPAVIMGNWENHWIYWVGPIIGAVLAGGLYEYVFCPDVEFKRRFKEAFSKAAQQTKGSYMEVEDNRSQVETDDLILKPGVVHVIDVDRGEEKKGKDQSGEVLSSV

O=C(Nc1cc(C(F)(F)F)cc(C(F)(F)F)c1)c1cc(Cl)ccc1O [AER-270, N-(3,5-bis(trifluoromethyl)phenyl)-5-chloro-2-hydroxybenzamide]
Kd (recombinant hAQP4 (AQP4)): 17 ± 3.1 µM

O=C(Nc1nncs1)c1cccnc1 [TGN-020, N-1,3,4-thiadiazol-2-yl-3-pyridinecarboxamide]
IC50 [1]: 20 µM | Kd [2]: 54 µM
